Data: patent US20070014692A1, “Method and apparatus for measurement of binding between a protein and a nucleotide” (priority 1998, published 2007)

Biological target: T1, human estrogen receptor binding to the ERE (estrogen response element from Xenopus Vitellogenen A2 Gene) (Homo sapiens, UniProt P03372)
T1 construct: ubiquitin (gene fusion); host or cells: Saccharomyces cerevisiae strain AF103, YEpE10 plasmid, CUP1 promoter
Experiment: Evanescent fiber optic sensor with ERE fiber: binding of Cy5-tagged hER to estrogen response element in the presence of compound (S/C)

T1 sequence (P03372 whole entry, the tested form may be a part): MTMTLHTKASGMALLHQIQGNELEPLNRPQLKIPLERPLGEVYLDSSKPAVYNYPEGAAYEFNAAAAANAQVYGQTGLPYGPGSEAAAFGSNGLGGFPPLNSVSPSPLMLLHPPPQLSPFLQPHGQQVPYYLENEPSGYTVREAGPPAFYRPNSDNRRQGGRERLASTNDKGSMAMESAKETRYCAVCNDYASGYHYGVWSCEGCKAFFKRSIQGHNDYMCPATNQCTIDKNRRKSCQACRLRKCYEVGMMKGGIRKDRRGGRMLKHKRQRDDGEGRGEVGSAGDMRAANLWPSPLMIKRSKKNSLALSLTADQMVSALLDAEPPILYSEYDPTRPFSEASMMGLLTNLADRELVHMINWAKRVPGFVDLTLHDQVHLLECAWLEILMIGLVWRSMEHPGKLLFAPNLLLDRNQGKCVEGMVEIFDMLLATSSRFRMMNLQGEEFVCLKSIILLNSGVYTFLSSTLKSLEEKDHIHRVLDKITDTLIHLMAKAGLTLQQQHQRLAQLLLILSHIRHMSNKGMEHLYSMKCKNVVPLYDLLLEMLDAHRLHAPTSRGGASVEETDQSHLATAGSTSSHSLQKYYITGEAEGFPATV

C[C@H]1CCCC(=O)CCC/C=C/c2cc(O)cc(O)c2C(=O)O1 [zearalenone]
effect on binding of receptor to the ERE fiber, in words (10^−6M compound): increase binding to the ERE more than do the weak biological estrogens | Response of ERE fiber to hER and 10^−6M compound (control = 3.51) (S/C value, control = 3.51): 5.01
